Laboratory results from patent publication US20230273220A1, “METHODS FOR PREDICTION, DETECTION AND MONITORING OF SUBSTANCEUSE DISORDERS AND/OR AN INFECTION” (NATIONAL HEALTH RESEARCH INSTITUTES, priority 2020, published 2023).

Key:
[1] = Plasma nicotine metabolite cotinine concentration in MMT patients subgrouped by age; assay type: in vivo, human
[2] = Self-reported skin irritation after taking methadone in MMT patients; conditions: 15 of 344 MMT patients
Protocol: The inclusion criteria included subjects aged 18 or above, having undergone MMT for at least three months with regular attendance for the past seven days, and a methadone dosage adjustment of not more than 10 mg in the past seven days. Exclusion criteria included co-morbidity with physical and mental disorders requiring immediate treatment and pregnancy.

| Compound | Plasma cotinine concentration ([1]; MMT subjects age <45, n=275, mean ± SD) [ng/mL] | Plasma cotinine concentration ([1]; MMT subjects age ≥45, n=69, mean ± SD) [ng/mL] | Patients self-reporting skin irritation after taking methadone [2] |
| --- | --- | --- | --- |
| CN1C(=O)CC[C@H]1c1cccnc1 [Cotinine] | 384.20 ± 184.90 | 439.65 ± 203.44 |  |
| CCC(=O)C(CC(C)N(C)C)(c1ccccc1)c1ccccc1 (stereo not drawn) [R,S-methadone] |  |  | around 4.4% |
